Measurements: article PMC10714400, “Antimicrobial Peptide–Peptoid Hybrids with and without Membrane Disruption” (ACS Infectious Diseases, 2023)
pIC50: −log10 of the molar value. Converted amounts (≈) assume the structure as drawn. Where a SMILES comes first, the peptide text is derived from it. [ ]: non-standard residue; d: D form. Nleu = CC(C)CNCC(=O)O; Nlys = NCCCCNCC(=O)O

Experiments:
A. baumannii ATCC19606 = tested on: A. baumannii ATCC19606
Description: (§1) Antimicrobial activity was assayed for all the peptide–peptoids against P. aeruginosa PAO1, K. pneumoniae NCTC418, E. coli W3110, A. baumannii ATCC 19606, methicillin-resistant S. aureus COL (MRSA), and for selected peptides on P. aeruginosa PA14 and the polymyxin-B-resistant derivatives PA14 4.13, PA14 4.18, PA14 2P4, as well as the clinical isolates ZEM-1A and ZEM9A, K. pneumoniae OXA-48, S. aureus Newman, Enterobacter cloacae, Stenotrophomonas maltophilia, Burkholderia cenocepacia, and Staphylococus epidermidis. To determine the Minimal Inhibitory Concentration (MIC), the Broth Microdilution method was used.[72] A colony of bacteria was picked and grown in LB medium overnight at 37 °C.
(§2) To each well was finally added 4 μL of the diluted bacterial suspension (see above), corresponding to approximately 5 × 10^5 CFU. For each test, two columns of the plate were kept for sterility control (medium only), growth control (medium with bacterial inoculum, no compound). The positive control, Polymyxin B (starting with a concentration of 16 μg/mL) in MH medium with bacterial inocula, was introduced in the two lines of the plate. The plates were incubated at 37 °C for ca. 18 h under static conditions. Next, 15 μL of 3-(4,5-dimethylthiazol-2-yl)-2,5-diphenyltetrazolium bromide (MTT)[73] (1 mg/mL in sterilized MilliQ deionized water) were added to each well, and the plates were incubated for 20–30 min at room temperature. The minimal inhibitory concentration (MIC) was defined as the lowest concentration of the compound that inhibits the visible growth of the tested bacteria (yellow) with the unaided eye.

E. coli W3110 = tested on: E. coli W3110
Description: as §1, §2

K. pneumoniae NCTC418 = tested on: K. pneumoniae NCTC418
Description: as §1, §2

P. aeruginosa PAO1 = tested on: P. aeruginosa PAO1
Description: as §1, §2

PA14 2P4 (pmrB) = conditions: CSV; […] MH at pH 8.5
Description: as §1, §2

PA14 4.13 (phoQ) = conditions: CSV; […] MH at pH 8.5
Description: as §1, §2

PA14 4.18 (pmrB) = conditions: […] MH at pH 8.5
Description: as §1, §2

S. aureus COL (MRSA) = tested on: S. aureus COL (MRSA)
Description: as §1, §2

[1] = tested on: human red blood cells (hRBC); test: Minimum hemolytic concentration (MHC); assay type: cell-based
Description: We also measured minimal hemolysis concentrations (MHC) on human red blood cells by serial 2-fold dilution as an indication of toxicity against eukaryotic cells (Table 1).

[2] = Circular dichroism, α-helical content; assay type: physicochemical; conditions: 0.1 mg/mL; for CD %α with 5 mM DPC: 10 mM phosphate buffer pH 7.4, 5 mM DPC; for CD %α with 20% TFE: 10 mM phosphate buffer pH 7.4, 20% TFE
P. aeruginosa PA14 = conditions: PA14, pH 8.5
Description: as §1
as §2, with “The plates were incubated at 37 °C for ca. 18 h under static conditions.” left out

S. aureus Newman = conditions: Newman, 4 h, pH 8.5
Description: as §1
as §2, with “The plates were incubated at 37 °C for ca. 18 h under static conditions.” left out

HEK293 cells = test: Cell viability assay by Alamar blue; conditions: read-out: Toxicity on HEK293 cells; CSV
Description: The data are represented as the mean value ± SD, n = 3. […] (c) Vesicle leakage assay for a selection of compounds. Lipid vesicles made of EYPG or EYPC were suspended in a buffer (10 mM TRIS, 107 mM NaCl, pH 7.4). After 45 s, the indicated compound was added to reach the desired concentration. After 240 s, 30 μL of 1.2% TritonX-100 was added for full fluorescein release. […] See Supporting Information for the full curves, all of the data, and procedures.
HEK293 cells were cultured and maintained in DMEM high glucose (Dulbecco’s modified Eagle medium, Sigma Aldrich) medium supplemented with 10% FBS (Sigma Aldrich) and 1% penicillin/streptomycin. A549 cells were cultured and maintained in RPMI-1640 medium (Sigma Aldrich), supplemented with 10% FBS (Sigma Aldrich) and 1% penicillin/streptomycin. The cells were handled and subcultured according to the manufacturer instructions. Cells were incubated in a humidified incubator at 37 °C in the presence of 5% CO2.
Assays on HEK293, A549 cells were performed as described earlier.[74] […]

## CC(C)C[C@H](NC(=O)CN(CCCCN)C(=O)[C@H](CC(C)C)NC(=O)[C@H](CC(C)C)NC(=O)[C@H](CCCCN)NC(=O)[C@H](CC(C)C)NC(=O)[C@H](CC(C)C)NC(=O)[C@H](CCCCN)NC(=O)CNCCCCN)C(=O)N[C@@H](CC(C)C)C(=O)N(CC(N)=O)CC(C)C [EB2, kKLLKLLkLLl] (H-[Nlys]KLLKLL[Nlys]LL[Nleu]-NH2)
A. baumannii ATCC19606; ATCC19606, 4 h, pH 7.4
  MIC A. baumannii ATCC19606, full MH at pH 7.4: >32 ug/mL
A. baumannii ATCC19606; Table S2, […] MH, pH 7.4
  MIC A. baumannii ATCC19606 […] 7.4: 16 µg/mL (≈ 12.1 µM)
A. baumannii ATCC19606; Table S2, […] MH, pH 8.5
  MIC A. baumannii ATCC19606 […] 8.5: 8 µg/mL (≈ 6.05 µM)
A. baumannii ATCC19606; Table S2, full MH, pH 7.4
  MIC A. baumannii ATCC19606 Full MH 7.4: > 32 µg/mL
A. baumannii ATCC19606; Table S2, full MH, pH 8.5
  MIC A. baumannii ATCC19606 Full MH 8.5: 32 µg/mL (≈ 24.2 µM)
E. coli W3110; CSV, […] MH at pH 7.4
  MIC E. coli W3110, […] MH at pH 7.4: 4 ug/mL
E. coli W3110; CSV, full MH at pH 7.4
  MIC E. coli W3110, full MH at pH 7.4: 32 ug/mL
E. coli W3110; CSV, full MH at pH 8.5
  MIC E. coli W3110, full MH at pH 8.5: 32 ug/mL
E. coli W3110; Table S2, […] MH, pH 7.4
  MIC E. coli W3110 […] 7.4: 4 µg/mL (≈ 3.03 µM)
E. coli W3110; Table S2, […] MH, pH 8.5
  MIC E. coli W3110 […] 8.5: 2 µg/mL (≈ 1.51 µM)
E. coli W3110; Table S2, full MH, pH 7.4
  MIC E. coli W3110 Full MH 7.4: 32 µg/mL (≈ 24.2 µM)
E. coli W3110; Table S2, full MH, pH 8.5
  MIC E. coli W3110 Full MH 8.5: 32 µg/mL (≈ 24.2 µM)
K. pneumoniae NCTC418; NCTC418, 4 h, pH 7.4
  MIC K. pneumoniae NCTC418, full MH at pH 7.4: >32 ug/mL
K. pneumoniae NCTC418; NCTC418, 4 h, pH 8.5
  MIC K. pneumoniae NCTC418, full MH at pH 8.5: >32 ug/mL
K. pneumoniae NCTC418; Table S2, […] MH, pH 7.4
  MIC K. pneumoniae NCTC418 […] 7.4: > 32 µg/mL
K. pneumoniae NCTC418; Table S2, […] MH, pH 8.5
  MIC K. pneumoniae NCTC418 […] 8.5: > 32 µg/mL
K. pneumoniae NCTC418; Table S2, full MH, pH 7.4
  MIC K. pneumoniae NCTC418 Full MH 7.4: > 32 µg/mL
K. pneumoniae NCTC418; Table S2, full MH, pH 8.5
  MIC K. pneumoniae NCTC418 Full MH 8.5: > 32 µg/mL
P. aeruginosa PAO1; PAO1, 4 h, pH 7.4
  MIC P. aeruginosa PAO1, full MH at pH 7.4: 32 ug/mL
P. aeruginosa PAO1; PAO1, 4 h, pH 8.5
  MIC P. aeruginosa PAO1, full MH at pH 8.5: 16 ug/mL
P. aeruginosa PAO1; Table S2, […] MH, pH 7.4
  MIC P. aeruginosa PAO1 […] 7.4: 16 µg/mL (≈ 12.1 µM)
P. aeruginosa PAO1; Table S2, […] MH, pH 8.5
  MIC P. aeruginosa PAO1 […] 8.5: 8 µg/mL (≈ 6.05 µM)
P. aeruginosa PAO1; Table S2, full MH, pH 7.4
  MIC P. aeruginosa PAO1 Full MH 7.4: 32 µg/mL (≈ 24.2 µM)
P. aeruginosa PAO1; Table S2, full MH, pH 8.5
  MIC P. aeruginosa PAO1 Full MH 8.5: 16 µg/mL (≈ 12.1 µM)
PA14 2P4 (pmrB)
  MIC P. aeruginosa PA14 2P4, […] MH at pH 8.5: 8 ug/mL
PA14 4.13 (phoQ)
  MIC P. aeruginosa PA14 4.13, […] MH at pH 8.5: 4 ug/mL
PA14 4.18 (pmrB); CSV
  MIC P. aeruginosa PA14 4.18, […] MH at pH 8.5: 6 ug/mL
PA14 4.18 (pmrB); Table S3
  MIC P. aeruginosa PA14 4.18: 4 to 8 µg/mL
S. aureus COL (MRSA); COL, 4 h, pH 7.4
  MIC S. aureus COL (MRSA), full MH at pH 7.4: >32 ug/mL
S. aureus COL (MRSA); COL, 4 h, pH 8.5
  MIC S. aureus COL (MRSA), full MH at pH 8.5: 32 ug/mL
S. aureus COL (MRSA); Table S2, […] MH, pH 7.4
  MIC S. aureus COL (MRSA) […] 7.4: 32 µg/mL (≈ 24.2 µM)
S. aureus COL (MRSA); Table S2, […] MH, pH 8.5
  MIC S. aureus COL (MRSA) […] 8.5: 2 µg/mL (≈ 1.51 µM)
S. aureus COL (MRSA); Table S2, full MH, pH 7.4
  MIC S. aureus COL (MRSA) Full MH 7.4: > 32 µg/mL
S. aureus COL (MRSA); Table S2, full MH, pH 8.5
  MIC S. aureus COL (MRSA) Full MH 8.5: 32 µg/mL (≈ 24.2 µM)
[1]
  Hemolysis: none of them showed any measurable hemolysis
  MHC: >2000 µg/mL
[2]; DichroWeb, Contin-LL
  CD %α with 5 mM DPC: 11%
  CD %α with 20% TFE: 15%
[2]; Table S2
  CD %α with 5 mM DPC: 11%
  CD %α with 20% TFE: 15%
P. aeruginosa PA14
  MIC P. aeruginosa PA14: 2 to 4 µg/mL
S. aureus Newman
  MIC S. aureus Newman: 2 to 4 µg/mL
HEK293 cells
  pIC50: < 3.70
